Patent publication US20070027118A1 (priority 2005, published 2007)

Assays:
11β-hsd-1 enzyme [1] = target: T1, 11β-hsd-1 enzyme (Homo sapiens, UniProt P28845); experiment: biochemical
Summary of the method: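 Enzyme (5 nM) pre-incubated ≥30 min at RT with inhibitor and 500 μM NADPH in triethanolamine buffer pH 8.0; reaction started with glucose-6-phosphate regenerating system and 200 nM 3H-cortisone, stopped with DMSO after 60 min. Product quantified by radio-HPLC; Kiapp from Morrison tight-binding equation.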

11β-hsd-1 enzyme [2] = target: T1, 11β-hsd-1 enzyme; experiment: biochemical; conditions: read-out: % Inh @ 0.1 mM
Summary of the method: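 Human 11β-HSD-1 (5 nM) pre-incubated ≥30 min with inhibitor and 500 μM NADPH in triethanolamine buffer pH 8.0 with NaCl, n-dodecyl β-D-maltoside and β-ME; reaction started with G6P/G6PDH/MgCl2 regenerating system and 200 nM 3H-cortisone, run 60 min, stopped with DMSO. 3H-cortisol and substrate separated by radio-HPLC; percent inhibition from peak areas.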

T1 sequence (P28845 whole entry, species assumed): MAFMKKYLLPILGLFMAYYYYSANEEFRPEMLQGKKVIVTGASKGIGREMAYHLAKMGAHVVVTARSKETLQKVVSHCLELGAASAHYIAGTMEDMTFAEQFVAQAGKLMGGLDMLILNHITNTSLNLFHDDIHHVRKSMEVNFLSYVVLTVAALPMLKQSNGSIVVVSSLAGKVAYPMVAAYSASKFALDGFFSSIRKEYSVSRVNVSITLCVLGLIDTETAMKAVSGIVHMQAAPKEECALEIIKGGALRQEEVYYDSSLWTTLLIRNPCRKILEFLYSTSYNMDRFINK

Ki (11β-hsd-1 enzyme [1]) [nM]	inhibition (11β-hsd-1 enzyme [2]) [%]	Compound
35	79.5	CCc1cccc(NS(=O)(=O)N2CCCCCC2)n1 [Example 197, N-(6-ethylpyridin-2-yl)azepane-1-sulfonamide]
71	69.1	CCc1cccc(NS(=O)(=O)N2CCN(c3ncccc3C(F)(F)F)CC2)n1 [Example 198, N-(6-ethylpyridin-2-yl)-4-[3-(trifluoromethyl)pyridin-2-yl]piperazine-1-sulfonamide]
20	96.8	CCc1cccc(NS(=O)(=O)N2CCCN(Cc3ccc(F)cc3)CC2)n1 [Example 200, N-(6-ethylpyridin-2-yl)-4-(4-fluorobenzyl)-14-diazepane-1-sulfonamide]
33	83.9	CCc1cccc(NS(=O)(=O)N2CCN(c3ncccc3C#N)CC2)n1 [Example 201, 4-(3-cyanopyridin-2-yl)-N-(6-ethylpyridin-2-yl)piperazine-1-sulfonamide]
